Test results published in paper PMC9369231, “Bile Acid–Drug Interaction via Organic Anion-Transporting Polypeptide 4C1 Is a Potential Mechanism of Altered Pharmacokinetics of Renally Excreted Drugs” (International Journal of Molecular Sciences, 2022).

Experiments:
Format in all cases: cell-based
[1] = molecular target: T1, OATP4C1 (organic anion-transporting polypeptide 4C1) (Homo sapiens, UniProt Q6ZQN7); test: inhibition of T3 uptake in OATP4C1/MDCKII cells, LC/MS/MS, mock subtracted
T1 construct: gene SLCO4C1; stably expressed in MDCKII cells (G418), butyrate-induced
T1 sequence (Q6ZQN7 1-724): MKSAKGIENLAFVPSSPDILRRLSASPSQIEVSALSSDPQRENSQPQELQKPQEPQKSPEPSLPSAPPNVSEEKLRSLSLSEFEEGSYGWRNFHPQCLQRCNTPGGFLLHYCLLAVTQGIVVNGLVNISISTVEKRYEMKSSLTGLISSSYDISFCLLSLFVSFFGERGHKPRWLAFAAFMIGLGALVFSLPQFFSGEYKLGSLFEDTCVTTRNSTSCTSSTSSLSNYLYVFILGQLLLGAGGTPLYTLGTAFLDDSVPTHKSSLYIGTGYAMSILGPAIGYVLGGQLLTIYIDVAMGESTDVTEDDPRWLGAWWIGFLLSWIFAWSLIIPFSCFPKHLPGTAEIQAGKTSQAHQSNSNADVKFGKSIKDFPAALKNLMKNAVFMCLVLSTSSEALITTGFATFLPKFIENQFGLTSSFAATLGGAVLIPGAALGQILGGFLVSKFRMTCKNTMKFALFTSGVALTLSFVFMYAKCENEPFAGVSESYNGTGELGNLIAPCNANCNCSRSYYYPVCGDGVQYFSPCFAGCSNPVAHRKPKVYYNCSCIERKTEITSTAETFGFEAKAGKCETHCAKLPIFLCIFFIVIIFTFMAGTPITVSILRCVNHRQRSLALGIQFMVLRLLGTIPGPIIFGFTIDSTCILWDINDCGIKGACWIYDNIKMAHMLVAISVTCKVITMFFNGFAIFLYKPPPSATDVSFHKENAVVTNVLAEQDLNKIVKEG
Description: inhibition of T3 uptake in OATP4C1/MDCKII cells, LC/MS/MS, mock subtracted on OATP4C1 (organic anion-transporting polypeptide 4C1)

[2] = molecular target: T1, OATP4C1 (organic anion-transporting polypeptide 4C1); test: inhibition of T3 uptake in OATP4C1/MDCKII cells; Ki calculated from IC50 as IC50/([…]+[S]/Km)
[3] = molecular target: T1, OATP4C1 (organic anion-transporting polypeptide 4C1); test: inhibition of T3 uptake in OATP4C1/MDCKII cells, LC/MS/MS, mock subtracted; settings: MDCK-II

For `C[C@H](CCC(=O)NCC(=O)O)[C@H]1CC[C@H]2[C@@H]3CC[C@@H]4C[C@H](O)CC[C@]4(C)[C@H]3CC[C@]12C` [GLCA], which IC50 [1] is on record?
Its IC50 is 9.9 ± 0.475 µM.

What about the Ki [2] of the same molecule?
The Ki was 8.46 ± 0.406 µM.

Which IC50 [1] does the source give for `C[C@H](CCC(=O)O)[C@H]1CC[C@H]2[C@@H]3CC[C@@H]4C[C@H](O)CC[C@]4(C)[C@H]3CC[C@]12C` [LCA] here?
The IC50 was 6.12 ± 1.21 µM.

What about the Ki [2] of the same molecule?
Its Ki is 5.23 ± 1.03 µM.

Which inhibition at 50 µM [3] does the source give for `C[C@H](CCC(=O)NCCS(=O)(=O)O)[C@H]1CC[C@H]2[C@@H]3CC[C@@H]4C[C@H](OS(=O)(=O)O)CC[C@]4(C)[C@H]3C[C@H](O)[C@]12C` [TDCA-3S] here?
The inhibition at 50 µM was 49.1%.

What does the source list for `C[C@H](CCC(=O)NCCS(=O)(=O)O)[C@H]1CC[C@H]2[C@@H]3CC[C@@H]4C[C@H](O)CC[C@]4(C)[C@H]3CC[C@]12C` [TLCA]?
IC50 [1]: 12.3 ± 0.891 µM; Ki [2]: 10.5 ± 0.762 µM
